Data set [1] deals with T1, Prostaglandin G/H synthase 2 (Homo sapiens, UniProt P35354).
T1 sequence (P35354 whole entry): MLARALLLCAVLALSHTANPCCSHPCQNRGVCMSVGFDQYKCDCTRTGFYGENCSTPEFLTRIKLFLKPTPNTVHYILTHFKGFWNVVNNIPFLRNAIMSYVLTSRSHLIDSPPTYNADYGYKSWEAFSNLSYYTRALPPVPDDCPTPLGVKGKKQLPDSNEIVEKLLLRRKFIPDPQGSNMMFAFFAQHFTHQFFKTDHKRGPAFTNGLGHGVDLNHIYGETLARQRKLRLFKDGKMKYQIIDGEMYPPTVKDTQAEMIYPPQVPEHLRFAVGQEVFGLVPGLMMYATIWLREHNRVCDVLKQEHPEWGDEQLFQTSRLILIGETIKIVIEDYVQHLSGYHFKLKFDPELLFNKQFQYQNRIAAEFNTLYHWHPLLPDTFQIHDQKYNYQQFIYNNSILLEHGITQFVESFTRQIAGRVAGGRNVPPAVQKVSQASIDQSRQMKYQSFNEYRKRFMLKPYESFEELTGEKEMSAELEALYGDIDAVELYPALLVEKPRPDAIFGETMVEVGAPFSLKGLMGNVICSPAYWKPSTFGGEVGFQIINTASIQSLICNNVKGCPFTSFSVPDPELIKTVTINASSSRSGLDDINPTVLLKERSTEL
The experiment in a line: Inhibition of COX2 in LPS-stimulated and PMA-treated human U937 cells assessed as PGE2 production after 15 mins by ELISA. Type of data set: cell-based, U-937. A general note: In an ELISA, binding on a coated surface is turned into a signal by an enzyme label.

Data set [2] is described as follows: Apparent half life in ICR mouse at 10 mg/kg, po. The format is ADME, organism-based. On the set-up: dose 10 mg/kg, route oral. The note with it: in vivo, read-out: t1/2(app) (converted).

One may read the IC50 as the point on the concentration scale where inhibition reaches its midpoint.

With `CC(C)Cc1ccc([C@H](CF)C(=O)O)cc1`, in data set [1], the IC50 turned out to be 530 nM. The half-life in data set [2] was 45 min.

(Values after ChEMBL document CHEMBL1944509, “Methyl-monofluorination of ibuprofen selectively increases its inhibitory activity toward cyclooxygenase-1 leading to enhanced analgesic activity and reduced gastric damage in vivo” (Bioorg Med Chem Lett, 2011).)
